pIC50, pKd: −log10 of the molar value. Calls of active or inactive are those of the source. The calls are words filed in the database; no cut-off is given here.
How the values were obtained:
[1] = (§1) Inhibition of Pseudomonas aeruginosa RuvA/RuvB protein complex helicase activity expressed in Escherichia coli BL21(DE3) assessed as inhibition of HJ branch migration preincubated for 15 mins followed by substrate addition and measured after 1 hr using 5'-FAM labelled 5'-CACTGTGATGCACGATGATTGACGACAGTAGTCAGTGCTGCAGTGGTCAGGTGTC-3' HJ-a duplex DNA as substrate in presence of ATP by PAGE analysis
[2] = as §1, with “Bacillus subtilis” for “Pseudomonas aeruginosa”
[3] = as §1, with “Thermus thermophilus” for “Pseudomonas aeruginosa”
Pseudomonas aeruginosa [4] = test: Inhibition of Pseudomonas aeruginosa RuvA expressed in Escherichia coli BL21(DE3) binding to HJ DNA assessed as reduction in RuvA-HJ DNA complex formation at 40 uM and measured after 15 mins using 5'-FAM labelled Holliday junction DNA as substrate by EMSA analysis
Pseudomonas aeruginosa [5] = test: Inhibition of Pseudomonas aeruginosa RuvA expressed in Escherichia coli BL21(DE3) binding to HJ DNA assessed as reduction in RuvA-HJ DNA complex formation at >20 uM and measured after 15 mins using 5'-FAM labelled Holliday junction DNA as substrate by EMSA analysis
Pseudomonas aeruginosa [6] = test: Antimicrobial activity against Pseudomonas aeruginosa ATCC27853 assessed as colony formation at 2 uM preincubated for 1 hr followed by UV-light irradiation for 5 mins then culture on LB-agar plate for overnight by colony counting method; format: functional, organism-based
Pseudomonas aeruginosa [7] = test: Inhibition of Pseudomonas aeruginosa RuvA expressed in Escherichia coli BL21(DE3) binding to HJ DNA assessed as reduction in RuvA-HJ DNA complex formation at >10 uM and measured after 15 mins using 5'-FAM labelled Holliday junction DNA as substrate by EMSA analysis
Pseudomonas aeruginosa [8] = test: Antimicrobial activity against Pseudomonas aeruginosa ATCC27853 assessed as colony formation at 50 uM preincubated for 1 hr followed by UV-light irradiation for 5 mins then culture on LB-agar plate for overnight by colony counting method; format: functional, organism-based
[9] = Inhibition of HJ-DNA dependent Pseudomonas aeruginosa RuvB ATPase activity expressed in Escherichia coli BL21(DE3) assessed as inhibition of ATP hydrolysis preincubated with compound followed by ATP addition and measured after 1 hr by Kinase-Glo reagent based luminescence analysis
Pseudomonas aeruginosa [10] = test: Binding affinity to CM5 chip immobilized Pseudomonas aeruginosa wild type RuvB expressed in Escherichia coli BL21(DE3) assessed as association rate constant (ka) measured for 240 sec by surface plasmon resonance analysis
Pseudomonas aeruginosa [11] = test: Binding affinity to CM5 chip immobilized Pseudomonas aeruginosa wild type RuvB expressed in Escherichia coli BL21(DE3) assessed as dissociation rate constant (kd) measured for 180 sec by surface plasmon resonance analysis
[12] = Binding affinity to CM5 chip immobilized Pseudomonas aeruginosa wild type RuvB expressed in Escherichia coli BL21(DE3) assessed as dissociation constant measured for 180 sec by surface plasmon resonance analysis
Pseudomonas aeruginosa [13] = test: Binding affinity to CM5 chip immobilized Pseudomonas aeruginosa RuvB D114N mutant expressed in Escherichia coli BL21(DE3) assessed as association rate constant (ka) measured for 240 sec by surface plasmon resonance analysis
Pseudomonas aeruginosa [14] = test: Binding affinity to CM5 chip immobilized Pseudomonas aeruginosa RuvB D114N mutant expressed in Escherichia coli BL21(DE3) assessed as dissociation rate constant (kd) measured for 180 sec by surface plasmon resonance analysis
[15] = Binding affinity to CM5 chip immobilized Pseudomonas aeruginosa RuvB D114N mutant expressed in Escherichia coli BL21(DE3) assessed as dissociation constant measured for 180 sec by surface plasmon resonance analysis

| pIC50 [1] | inhibition (Pseudomonas aeruginosa [4]) | inhibition (Pseudomonas aeruginosa [5]) | inhibition (Pseudomonas aeruginosa [7]) | Structure (SMILES) | pIC50 [2] | pIC50 [3] | Activity (Pseudomonas aeruginosa [6]) | Activity (Pseudomonas aeruginosa [8]) | pIC50 [9] | Ka (Pseudomonas aeruginosa [10]) | Kdiss (Pseudomonas aeruginosa [11]) | pKd [12] | Ka (Pseudomonas aeruginosa [13]) | Kdiss (Pseudomonas aeruginosa [14]) | pKd [15] |
| --- | --- | --- | --- | --- | --- | --- | --- | --- | --- | --- | --- | --- | --- | --- | --- |
| 5.33 | Active | Active | – | CC1=C(C)C(=O)C(CCCCCCCCCC[P+](c2ccccc2)(c2ccccc2)c2ccccc2)=CC1=O | 4.87 | 5.10 | Active | – | – | – | – | – | – | – | – |
| 6.42 | Active | – | Active | COC(=O)[C@]12CCC(C)(C)C[C@H]1[C@H]1C(=O)C=C3[C@@]4(C)C=C(C#N)C(=O)C(C)(C)[C@@H]4CC[C@@]3(C)[C@]1(C)CC2 [BARDOXOLONE METHYL] | – | – | – | Active | – | – | – | – | – | – | – |

| Structure (SMILES) | pIC50 [1] | inhibition (Pseudomonas aeruginosa [4]) | inhibition (Pseudomonas aeruginosa [5]) | inhibition (Pseudomonas aeruginosa [7]) | pIC50 [2] | pIC50 [3] | Activity (Pseudomonas aeruginosa [6]) | Activity (Pseudomonas aeruginosa [8]) | pIC50 [9] | Ka (Pseudomonas aeruginosa [10]) | Kdiss (Pseudomonas aeruginosa [11]) | pKd [12] | Ka (Pseudomonas aeruginosa [13]) | Kdiss (Pseudomonas aeruginosa [14]) | pKd [15] |
| --- | --- | --- | --- | --- | --- | --- | --- | --- | --- | --- | --- | --- | --- | --- | --- |
| O=C(O[C@@H]1O[C@@H]2COC(=O)c3cc(O)c(O)c(O)c3-c3c(cc(O)c(O)c3O)C(=O)O[C@H]([C@H]1O)[C@@H]2O)c1cc(O)c(O)c(O)c1 [CORILAGIN] | 6.40 | – | – | – | 6.08 | 5.95 | – | Active | 5.63 | 1.6 10^4/M/s | 2.2 10^-3/s | 6.89 | 5.9 10^3/M/s | 2.4 10^-3/s | 6.39 |
